The record followed here is PubChem BioAssay (NCI).

Among the test systems are SN12C renal; HL-60(TB) leukemia; OVCAR-8 ovarian; HS 578T breast; PC-3 prostate; MDA-MB-231 breast; CCRF-CEM leukemia; HCT-116 colon; OVCAR-4 ovarian; HT29 colon.
What all share (assay): inhibition of tumour cell growth, NCI panel, 48 h

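48-hour exposure; five concentrations; linearly interpolated endpoints. GI50 marks 50% less growth. TGI is the concentration that stops growth completely.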

For `CCCCCCCCCCCCCCCc1ccc(C(=O)C[n+]2ccccc2)cc1`, the GI50 in the experiment with SN12C renal is 756 nM; with HL-60(TB) leukemia, 531 nM; in the experiment on OVCAR-8 ovarian it was 1220 nM; in the experiment with HS 578T breast it was 1750 nM; in the experiment with PC-3 prostate it was 1230 nM; in the experiment with MDA-MB-231 breast it was 886 nM. Further, the TGI in the experiment with SN12C renal came to 2130 nM; in the experiment with HL-60(TB) leukemia, 2520 nM; in the experiment with OVCAR-8 ovarian, 2550 nM; in the experiment with HS 578T breast, 4250 nM; in the experiment on PC-3 prostate it was 3770 nM; in the experiment on MDA-MB-231 breast, 2230 nM.

As to `NC(=O)OCc1c(O)c2c(c(O)c1COC(N)=O)C(=O)C=CC2=O`, the TGI in the experiment with CCRF-CEM leukemia, with SN12C renal, in the experiment with HCT-116 colon, with HL-60(TB) leukemia, in the experiment on OVCAR-8 ovarian and in the experiment with OVCAR-4 ovarian was above 100000 nM throughout. The compound also gave a TGI in the experiment on HT29 colon above 100000 nM.

With `COc1ccc(C2C(Cl)C(=O)N2NC(=O)c2ccc(NC(C)=O)cc2)cc1OC` (stereo not drawn), the TGI with CCRF-CEM leukemia, in the experiment with HCT-116 colon, in the experiment on HL-60(TB) leukemia, in the experiment with OVCAR-8 ovarian and with HT29 colon was above 100000 nM each time.

For `N=C(N)c1ccc(-c2ccc(-c3ccccc3)o2)cc1`, the GI50 in the experiment on CCRF-CEM leukemia is 2130 nM; in the experiment on SN12C renal, 2720 nM; in the experiment with HL-60(TB) leukemia it was 1930 nM; in the experiment with OVCAR-4 ovarian, 1960 nM; with HT29 colon it was 2010 nM; in the experiment on HS 578T breast it was 2580 nM. The GI50 in the experiment on PC-3 prostate is 2280 nM; in the experiment on MDA-MB-231 breast, 1930 nM. Also, the TGI is 5030 nM in the experiment on CCRF-CEM leukemia; 7610 nM in the experiment on SN12C renal; 4420 nM in the experiment with HL-60(TB) leukemia; 4900 nM in the experiment with OVCAR-4 ovarian; 4510 nM in the experiment on HT29 colon; 7040 nM in the experiment with HS 578T breast. The TGI in the experiment on PC-3 prostate amounted to 5970 nM; in the experiment on MDA-MB-231 breast it was 4080 nM.

`O=C(Nc1ccc(-n2cc(-c3ccncc3)c(-c3ccc(O)c(Cl)c3)n2)cc1)c1ccc(Cl)c(Cl)c1`: the GI50 in the experiment with CCRF-CEM leukemia was 1010 nM; in the experiment with SN12C renal, 2950 nM; with HCT-116 colon, 1230 nM; in the experiment with HL-60(TB) leukemia it was 1390 nM; with OVCAR-8 ovarian, 1740 nM; with OVCAR-4 ovarian, 2710 nM. The values for the GI50 with HS 578T breast, in the experiment with PC-3 prostate and in the experiment with MDA-MB-231 breast were 791 nM, 1350 nM and 510 nM, respectively. In addition, the TGI in the experiment on CCRF-CEM leukemia, with SN12C renal, in the experiment on HCT-116 colon, in the experiment with HL-60(TB) leukemia, with OVCAR-8 ovarian and in the experiment with OVCAR-4 ovarian was above 32500 nM each time. Further, the figures for the TGI with HS 578T breast, in the experiment on PC-3 prostate and in the experiment with MDA-MB-231 breast were above 32500 nM, above 32500 nM and 1110 nM, respectively.
